Results: patent publication US20240041982A1, “EXTENDED RELEASE HYDROGEL CONJUGATES OF C-NATRIURETIC PEPTIDES” (ProLynx LLC, priority 2020, published 2024)
Bridge positions count the residues as written; N and C are the ends. Ends that are not written are not given here.

Assays:
[1] = system: wild-type male mice (FVB/nJ); experiment: Pharmacodynamics in juvenile mice: growth and bone length by X-ray; format: in vivo; conditions: QD 70 nmol/kg; after 5 weeks of treatment
Experimental: Three-week old wild-type male mice (FVB/nJ; Charles River Laboratory, Inc) were administered subcutaneous injections of the conjugates of Example 3 at either a weight-adjusted (nmol/kg) or constant (nmol/animal independent of the initial weight) dose over 35 days. For experiments using constant doses/animal, the conjugate of Example 3 wherein R^1=isopropylsulfonyl (conjugate 4A) was administered at either 20 or 50 nmol/mouse; the conjugate of Example 3 wherein R^1=(N,N-dimethylamino)sulfonyl (conjugate 4B) was administered at either 85 or 600 nmol/mouse. For experiments using weight-adjusted doses/animal, conjugate 4A was administered at either 1.5 or 2.2 umol/kg; conjugate 4B was administered at 6.1 umol/kg. Doses were calculated based on the body weight just prior to dosing and performed at approximately the same time of day. Comparator animals were dosed with either [Gln^6,14]CNP-38 or vosoritide at 70 nmol/kg formulated in 30 mM acetic acid pH 4.0 containing 10% (w/v) sucrose and 1% (v/v) benzyl alcohol (Wendt; Breinholt), and control animals were dosed with the formulation buffer (isotonic acetate (10 mM Na Acetate, 143 mM NaCl), pH 5.0, 0.05% Tween 20 buffer containing 1.2% sodium hyaluronate. Daily weight-adjusted doses were calculated based on the body weight just prior to dosing and performed at approximately the same time each day.
Blood collections were made via tail vein with the addition of protease inhibitors (Halt protease inhibitor cocktail, ThermoScientific) and processed with K2EDTA to provide ˜15-20 μL plasma, for analysis of free [Gln^6,14]CNP-38. For the mice treated with the conjugate 4A, blood collection occurred at 0, 24, 168, 192, 336, 360, 504, 528, 672 and 840 hr. For the mice treated with conjugate 4B, blood collection occurred at 0, 24, 168, 336, 504, 672 and 840 hr.
Body weight, tail length and naso-anal length were collected at study initiation and were measured weekly during the in-life treatment period. […] The naso-anal (distance from the tip of the nose to the anus) and the tail length (distance from the anus to the tip of the tail) were measured and recorded. The same ruler was used for all measurements, and all measurements were conducted and recorded in centimeters. Total length (TL) is derived from the addition of the measured tail length and naso-anal length.
On day 35, the mice were anesthetized and in addition to the nasal-anal and tail length measurements, bone length measurements were made by digital X-ray (spine, right femur, right tibia, humerus and ulna). Following deep anesthesia with isoflurane, the mice were placed in the prone position and the length of the spine (lateral view, distance from the most cranial end of the C1 vertebra to the most caudal end of the S4 vertebra and accounting for curvature manually), the right femur (distance from the most proximal femoral head ossification center to the most distal ossification center in dorso-ventral view), the right tibia (distance from the most proximal ossification center to the most distal ossification center in dorso-ventral view), the right humerus (distance from the most proximal ossification center to the most distal ossification center in dorso-ventral view), and the right ulna (distance from the most proximal ossification center to the most distal ossification center in dorso-ventral view) of each mouse were measured by x-ray using a Spectral Imaging Instruments AMI HTX and the associated Aura software.

NPR-B = molecular target: T1, NPR-B (Homo sapiens, UniProt P20594); conditions: physiological concentrations (picomolar); cited from earlier work
T1 sequence (P20594 23-1047): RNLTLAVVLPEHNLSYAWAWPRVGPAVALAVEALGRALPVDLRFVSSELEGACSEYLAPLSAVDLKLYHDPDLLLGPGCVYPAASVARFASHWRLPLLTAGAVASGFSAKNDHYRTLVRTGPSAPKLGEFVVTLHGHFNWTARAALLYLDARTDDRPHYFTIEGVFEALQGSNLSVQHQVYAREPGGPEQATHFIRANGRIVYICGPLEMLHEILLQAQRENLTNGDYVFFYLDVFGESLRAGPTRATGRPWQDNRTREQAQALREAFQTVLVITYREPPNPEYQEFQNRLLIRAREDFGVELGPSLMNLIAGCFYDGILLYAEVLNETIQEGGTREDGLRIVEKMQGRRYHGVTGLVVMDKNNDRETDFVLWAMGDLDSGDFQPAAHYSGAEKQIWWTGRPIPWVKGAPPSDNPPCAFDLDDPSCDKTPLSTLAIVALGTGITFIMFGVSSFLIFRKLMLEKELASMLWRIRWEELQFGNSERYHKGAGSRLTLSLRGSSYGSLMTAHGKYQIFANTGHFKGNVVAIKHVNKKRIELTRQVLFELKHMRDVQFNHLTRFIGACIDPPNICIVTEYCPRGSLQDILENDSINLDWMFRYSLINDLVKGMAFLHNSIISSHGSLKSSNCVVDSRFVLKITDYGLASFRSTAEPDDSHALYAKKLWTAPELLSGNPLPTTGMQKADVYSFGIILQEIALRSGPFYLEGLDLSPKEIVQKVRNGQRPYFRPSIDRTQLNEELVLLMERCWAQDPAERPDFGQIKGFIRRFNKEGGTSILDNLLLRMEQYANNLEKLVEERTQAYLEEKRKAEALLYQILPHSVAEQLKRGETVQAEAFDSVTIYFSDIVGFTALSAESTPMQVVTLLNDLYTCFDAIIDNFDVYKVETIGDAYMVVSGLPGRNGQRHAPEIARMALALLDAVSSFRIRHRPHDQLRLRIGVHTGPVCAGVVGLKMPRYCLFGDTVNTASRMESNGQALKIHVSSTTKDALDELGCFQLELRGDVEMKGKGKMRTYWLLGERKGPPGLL

[2] = in vivo; cited from earlier work
[3] = in vivo; cited from earlier work; remark: listed apart in the source

For “(Gln^6,14)CNP38 (LQEHPQARKYKGAQKKGLSKGCFGLKLDRIGSMSGLGC; disulfide 22-38) [[Gln6, 14] CNP-38]”, the “Femur length % change from vehicle” value [1] was “(13.6%)”, the “Humerus length % change from vehicle” value [1] was “(0.8%)” and the “Spine length % change from vehicle” value [1] was “(10.1%)”. The “Tibia length % change from vehicle” value [1] was “(8.7%)” and the “Ulna length % change from vehicle” value [1] was “(5.4%)”.
In the case of CNP22, the “affinity for NPR-B relative to ANP and BNP” value (NPR-B) is given as 50-500 times and the plasma half-life [2] is given as ~3 min.
For “vosoritide (PGQEHPNARKYKGANKKGLSKGCFGLKLDRIGSMSGLGC; disulfide 23-39)”, the known side-effects [3] is listed as “increased heart rate and a drop in arterial blood pressure” and the half-life [2] is listed as 20 min.
